From patent US5591613A, “Method for the preparation of D-arginine and L-ornithine” (Degussa Aktiengesellschaft, priority 1990, dated 1997)

Assays:
arginase = details: literature value; cited from earlier work
Calf liver arginase [1] = molecular target: T1, Calf liver arginase (Bos taurus, UniProt Q2KJ64); assay: Arginase-catalysed hydrolysis of L-Arg to L-Orn, initial rates in batch, with and without inhibitors; assay type: biochemical; details: for kind of inhibition / substrate behaviour: from conversion-time profiles (FIG. 3); for conversion (%) after 1.0 hrs / conversion (%) after 1.5 hrs / conversion (%) after 2.0 hrs / ro, arginase: 0.5 M L-Arg; for conversion (%) after 1.0 hrs / conversion (%) after 1.5 hrs / conversion (%) after 2.0 hrs / ro, arginase / Vo Arginase / conversion after 2 hrs.: starting pH 11.5; for ro, arginase %: relative to 100:0; for Vo Arginase / conversion after 2 hrs.: 0.75 M L-Arg
T1 construct: purchased Boehringer Mannheim (Mannheim, F.R.G.)
T1 sequence (Q2KJ64 1-322): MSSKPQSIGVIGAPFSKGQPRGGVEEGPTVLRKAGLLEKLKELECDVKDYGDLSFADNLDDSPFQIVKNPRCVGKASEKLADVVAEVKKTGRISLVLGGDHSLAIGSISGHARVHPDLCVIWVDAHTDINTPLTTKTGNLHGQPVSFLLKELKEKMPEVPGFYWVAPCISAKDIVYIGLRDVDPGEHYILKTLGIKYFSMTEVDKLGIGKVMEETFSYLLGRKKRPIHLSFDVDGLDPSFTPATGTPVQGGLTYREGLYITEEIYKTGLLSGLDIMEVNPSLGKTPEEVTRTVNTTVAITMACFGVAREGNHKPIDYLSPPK
Protocol: In further experiments, the materials used were: Calf liver arginase (activity 110 U/mg) which was obtained from Boehringer Mannheim (Mannheim, F.R.G.). Amino acids were from Rexim (Ham, France). MnSO4, MnO2, and ascorbic acid were from E. Merck (Darmstadt, F.R.G.).
(§1) Batch conditions used were: Starting pH value, except for the activity-pH curve, was either 11.5, the natural value for L-Arg in water, or 9.5, adjusted from pH 11.5 with conc. HCl. The temperature was 25° C. unless otherwise noted. Typical concentrations of L-Arg were 0.75M. Unless otherwise mentioned, [Mn2^+ ]=5-10^-4 M. Reaction progress was followed by HPLC (amino column, mobile phase: phosphate buffer (pH 6.4)/acetonitrile).
Kinetic data was obtained as follows: Initial rate data were analyzed by a non-linear regression method (Marquardt routine) with the program OPTI (U. Giesecke, KFA J ulich).
A linear slope of 1/[S] vs. [I] plot distinguishes a purely competitive inhibition mechanism from a partially competitive one. Simultaneously, the apparent and the intrinsic KM -value are proportional to [I] according to equation (5) from which the inhibition constant KI can be calculated
Since the runs have been conducted at [LArg]=50 mM=2·Km,intr,Vo =Vmax ·2·KM,intr /(KM,intr (3+[I]/KI))=Vmax ·2/(3+[I]/KI). At [I]=KI, Vo =Vmax 2/(3+1)=Vmax /2. So, KI can be calcuated with sufficient accuracy from a Vo vs. [I] plot such as FIG. 4. […] In this work, however, maximum product concentration was sought for optimal space-time-yield and work-up efficiency.

ox liver arginase = details: literature; cited from earlier work
Calf liver arginase [2] = molecular target: T1, Calf liver arginase; assay: Activation of arginase by Mn2+ ions; assay type: biochemical
Protocol: as §1
Activation by Mn^2+ ions and MnO2 precipitation: An optimum concentration of the activator Mn^2+ of 0.5 mM was found. At the prevalent alkaline pH values, MnO2 from the oxidation of Mn^2+ precipitates. To suppress oxidation, ascorbic acid was added as an reducing agent.

NCCC[C@H](N)C(=O)O [L-Orn, L-ornithine]
Ki (arginase): 1300 µM

N=C(N)NCCC[C@H](N)C(=O)O [L-Arg, L-arginine]
kind of inhibition / substrate behaviour (Calf liver arginase [1]): not a substrate inhibitor
Vmax (Calf liver arginase [1]; nonlinear regression of initial rate data with L-Arg): 459 Units (=μmol/(min·mg))
Km (arginase): 4 mM
Km (ox liver arginase): 29 mM

N=C(N)NCCC[C@@H](N)C(=O)O [D-Arg, D-arginine]
conversion (%) after 1.0 hrs (Calf liver arginase [1]; Ratio L/D-Arg 50:50 (DL)): 15.6%
conversion (%) after 1.5 hrs (Calf liver arginase [1]; Ratio L/D-Arg 50:50 (DL)): 19.4%
conversion (%) after 2.0 hrs (Calf liver arginase [1]; Ratio L/D-Arg 50:50 (DL)): 26.4%
ro, arginase (Calf liver arginase [1]; Ratio L/D-Arg 50:50 (DL)): 0.097 mol/L/h
ro, arginase % (Calf liver arginase [1]; Ratio L/D-Arg 50:50 (DL)): 59.5%
conversion (%) after 1.0 hrs (Calf liver arginase [1]; Ratio L/D-Arg 60:40): 22.2%
conversion (%) after 1.5 hrs (Calf liver arginase [1]; Ratio L/D-Arg 60:40): 32.2%
conversion (%) after 2.0 hrs (Calf liver arginase [1]; Ratio L/D-Arg 60:40): 35.4%
ro, arginase (Calf liver arginase [1]; Ratio L/D-Arg 60:40): 0.1376 mol/L/h
ro, arginase % (Calf liver arginase [1]; Ratio L/D-Arg 60:40): 73.6%
conversion (%) after 1.0 hrs (Calf liver arginase [1]; Ratio L/D-Arg 70:30): 24.6%
conversion (%) after 1.5 hrs (Calf liver arginase [1]; Ratio L/D-Arg 70:30): 31.8%
conversion (%) after 2.0 hrs (Calf liver arginase [1]; Ratio L/D-Arg 70:30): 35.4%
ro, arginase (Calf liver arginase [1]; Ratio L/D-Arg 70:30): 0.1380 mol/L/h
ro, arginase % (Calf liver arginase [1]; Ratio L/D-Arg 70:30): 73.8%
conversion (%) after 1.0 hrs (Calf liver arginase [1]; Ratio L/D-Arg 85:15): 25.1%
conversion (%) after 1.5 hrs (Calf liver arginase [1]; Ratio L/D-Arg 85:15): 34.8%
conversion (%) after 2.0 hrs (Calf liver arginase [1]; Ratio L/D-Arg 85:15): 40.2%
ro, arginase (Calf liver arginase [1]; Ratio L/D-Arg 85:15): 0.150 mol/L/h
ro, arginase % (Calf liver arginase [1]; Ratio L/D-Arg 85:15): 80.3%
kind of inhibition / substrate behaviour (Calf liver arginase [1]): neither a substrate of arginase nor a non-competitive inhibitor

[Mn+2] [Mn^2+]
optimum concentration of the activator (Calf liver arginase [2]): 0.5 mM

NCCCC[C@H](N)C(=O)O [L-Lys, reference compound]
Vo Arginase (Calf liver arginase [1]; inhibitor 0.1 M): 0.129 mol/L/h
conversion after 2 hrs. (Calf liver arginase [1]; inhibitor 0.1 M): 34.3%
Vo Arginase (Calf liver arginase [1]; inhibitor 0.2 M): 0.120 mol/L/h
conversion after 2 hrs. (Calf liver arginase [1]; inhibitor 0.2 M): 32.1%
Vo Arginase (Calf liver arginase [1]; inhibitor 0.4 M): 0.086 mol/L/h
conversion after 2 hrs. (Calf liver arginase [1]; inhibitor 0.4 M): 22.9%
Vo Arginase (Calf liver arginase [1]; inhibitor 0.5 M): 0.075 mol/L/h
conversion after 2 hrs. (Calf liver arginase [1]; inhibitor 0.5 M): 19.9%
Vo Arginase (Calf liver arginase [1]; inhibitor 0.75 M): 0.066 mol/L/h
conversion after 2 hrs. (Calf liver arginase [1]; inhibitor 0.75 M): 17.5%
activity at 100000 µM (Calf liver arginase [1]; read-out: Vo Arginase (%)): 85.3%
activity at 200000 µM (Calf liver arginase [1]; read-out: Vo Arginase (%)): 79.9%
activity at 400000 µM (Calf liver arginase [1]; read-out: Vo Arginase (%)): 57%
activity at 500000 µM (Calf liver arginase [1]; read-out: Vo Arginase (%)): 49.5%
activity at 750000 µM (Calf liver arginase [1]; read-out: Vo Arginase (%)): 43.5%
Ki (arginase): 1300 µM
